Results as given in publication PMC11648915, “Identification and development of TRPM4 antagonists to counteract neuronal excitotoxicity” (iScience, 2024).
Where two headings read alike, the source gives them in different places.

Columns and labels:
human TRPM5 = molecular target: T1, human TRPM5 (Homo sapiens, UniProt Q9NZQ8); test: QPatch automated patch clamp on TRPM5-expressing HEK293 cells; type: cell-based; settings: hsTRPM5-expressing HEK293 cells
T1 sequence (Q9NZQ8 1-1165): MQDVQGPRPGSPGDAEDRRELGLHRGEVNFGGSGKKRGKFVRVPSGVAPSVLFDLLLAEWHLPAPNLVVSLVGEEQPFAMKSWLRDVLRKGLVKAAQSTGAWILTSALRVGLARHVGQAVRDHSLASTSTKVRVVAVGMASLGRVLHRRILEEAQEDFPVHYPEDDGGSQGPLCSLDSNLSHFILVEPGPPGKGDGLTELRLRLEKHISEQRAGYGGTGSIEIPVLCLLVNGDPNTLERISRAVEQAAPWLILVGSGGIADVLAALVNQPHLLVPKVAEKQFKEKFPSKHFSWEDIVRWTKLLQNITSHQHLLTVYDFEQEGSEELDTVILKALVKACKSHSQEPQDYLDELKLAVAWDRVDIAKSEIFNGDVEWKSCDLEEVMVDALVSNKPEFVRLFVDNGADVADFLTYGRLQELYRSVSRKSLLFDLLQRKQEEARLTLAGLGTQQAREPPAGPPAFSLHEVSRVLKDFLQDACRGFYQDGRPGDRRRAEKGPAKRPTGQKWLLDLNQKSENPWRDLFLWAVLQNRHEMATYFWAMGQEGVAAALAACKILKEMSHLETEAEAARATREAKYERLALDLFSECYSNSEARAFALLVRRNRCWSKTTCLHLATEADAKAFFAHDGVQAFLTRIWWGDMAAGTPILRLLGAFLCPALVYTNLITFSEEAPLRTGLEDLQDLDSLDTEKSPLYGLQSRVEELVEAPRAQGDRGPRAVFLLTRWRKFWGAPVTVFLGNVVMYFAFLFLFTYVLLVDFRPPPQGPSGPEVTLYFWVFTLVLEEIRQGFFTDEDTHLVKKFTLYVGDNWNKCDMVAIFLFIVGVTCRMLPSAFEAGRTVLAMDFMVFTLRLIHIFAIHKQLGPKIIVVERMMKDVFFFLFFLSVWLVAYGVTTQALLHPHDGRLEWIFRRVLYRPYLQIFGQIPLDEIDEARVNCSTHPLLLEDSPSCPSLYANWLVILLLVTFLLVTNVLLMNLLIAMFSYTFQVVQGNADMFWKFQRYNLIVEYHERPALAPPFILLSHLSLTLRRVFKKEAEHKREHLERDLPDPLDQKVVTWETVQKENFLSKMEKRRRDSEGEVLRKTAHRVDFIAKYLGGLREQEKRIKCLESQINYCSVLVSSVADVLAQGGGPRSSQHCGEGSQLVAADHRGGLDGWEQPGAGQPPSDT
Text: The counter screening phase involved the inclusion of hsTRPM5-expressing HEK293 cells, as closest homologue, and the parental HEK293 cell line to evaluate selectivity. […] Based on categorization of biological activity, mass spectrometry quality control, and aspects of medicinal chemistry, we prioritized 144 selective hsTRPM4 compounds. These compounds were then subjected to automated patch clamp electrophysiology measurements (QPatch[58]) to evaluate their activity profiles and IC50 values (Figures 1A, S1, and S2).
(§1) QPatchHTX, an automated electrophysiology platform, was used in single hole mode. One day before use human TRPM4- or TRPM5-expressing HEK293 cells were seeded in a T75 flask at a density of 53k cells per cm^2 and at passages < 23. For QPatch assays, cells were harvested and re-suspended in SFM (Gibco, 11686029). The extracellular solution was (in mM): CaCl2 (7), MgCl2 (2), KCl (5), HEPES (10), NaCl (70), NMDG (70); pH 7.4 with NaOH. The intracellular solution was (in mM): HEPES (10), NMDG (100), NaCl (50), EGTA (20), MgCl2 (1), CaCl2 (21); pH 7.2 with HCl. After break-in, channels were consistently open and current through the channels could be observed at a voltage ramp from –100 mV to +100 mV over 500 ms. This protocol was repeated every 7 seconds. After saline and vehicle application, the channel was desensitized and residual current was used as baseline. FFA was used as reference compound and applied cumulatively with each concentration incubating at a minimum of 20 voltage protocol runs (140 seconds) with the current after addition of FFA being calculated as full block. […] Each compound was measured at least 3 time independently.

[1] = molecular target: potassium channel human Ether-a-go-go Related Gene (hERG) (Homo sapiens, UniProt Q12809); test: hERG channel inhibition; type: cell-based
Text: We next used in vitro assays to test absorption, distribution, metabolism, excretion and toxicity (ADMET) parameters for selected compounds. We assessed compound absorption using parallel artificial membrane permeability (PAMPA) and Caco-2 cell permeability assays (cut-off criterion >2 × 10^−6 cm s^−1). […] To assess potential off-target activity of our compounds that could be relevant for safety in humans, we conducted comprehensive in vitro pharmacology using the commercially available and widely used SafetyScreen44 interaction panel[60] covering eight protein families.

[2] = Microsome clearance (mouse); type: in vitro ADME; settings: mouse liver microsomes, 45 min, NADPH
Description: (§2) Human or mouse liver microsomes were incubated with the test compound at a concentration of 1 μM for 45 min in the presence of cofactor (NADPH in excess). Samples were collected at various time points, and % remaining of test compound was determined using mass spectrometry (LC-MS/MS) to calculate hepatic clearance rate (L/h/kg).

[3] = Microsome clearance (human); type: in vitro ADME; settings: human liver microsomes, 45 min, NADPH, read-out: Microsomes (h) clearance (converted)
Description: as §2

CYP2D6 = molecular target: T2, CYP2D6 (Homo sapiens, UniProt P10635); test: CYP inhibition assay 2D6; type: in vitro ADME
T2 construct: purchased BD Gentest
Description: (§3) The half-maximal inhibitory concentration (IC50) for cytochrome P450 (CYP) enzymes was determined using an in vitro enzyme inhibition assay. Recombinant CYP enzymes or human liver microsomes from BD Gentest, in 0.1 M phosphate buffer pH 7.4, containing native CYP enzymes were incubated with the test compound at various concentrations (1, 3, 10 and 30 μM) and containing 0.5% DMSO and 0.1% BSA final concentrations. 1 mM of NADPH cofactor was added and the reaction was started by a rapid increase of temperature until 37°C.

CYP3A4 = molecular target: T3, CYP3A4 (Homo sapiens, UniProt P08684); test: CYP inhibition assay 3A4; type: in vitro ADME
T3 construct: purchased BD Gentest
Description: as §3

[4] = In vivo pharmacokinetics after single i.p. or i.v. dose; settings: female, C57BL/6J, mouse
Description: Next, to assess in vivo availability of the Series 1–3 compounds, we evaluated drug metabolism and pharmacokinetics (DMPK). We measured compound concentrations in plasma, heart, and brain at several time points after intraperitoneal (i.p.) or intravenous (i.v.) single-dose injections.
Half-life and bioavailability were calculated by noncompartmental analysis using the R package PK[84] (v1.3-6).

CYP 2C19 = molecular target: T4, CYP 2C19 (Homo sapiens, UniProt P33261); test: CYP inhibition assay 2C19; type: in vitro ADME
T4 construct: purchased BD Gentest
Description: as §3

[5] = Caco-2 permeability assay; type: in vitro ADME; settings: human, heading: Caco-2 perm., direction not given
Description: Caco-2 permeability was evaluated using a cell-based assay with Caco-2 cells cultured on permeable membrane inserts. The test compound was added at 10 μM to the apical (donor) compartment, and samples were collected from the basolateral (receiver) compartment at 120 min. The test compound was also added at 10 μM to the basolateral (donor) compartment, and samples were collected from the apical (receiver) compartment at 120 min. The amount of the compound in both compartments was measured using mass spectrometry (LC-MS/MS). The permeability coefficient (Papp, nm/s) apical to basolateral and basolateral to apical, and an efflux ratio were calculated.

[6] = Parallel Artificial Membrane Permeability Assay (PAMPA); type: in vitro ADME; settings: pH not given; for Papp at 16 h, 200 μM: PAMPA, read-out: PAMPA perm.
Description: Parallel Artificial Membrane Permeability Assay (PAMPA) was performed using artificial lipid membrane layers to assess passive permeability of the test compound. Test compounds were diluted to 200 μM in system buffer at pH 5.0, 6.2 and 7.4. The solutions were filtered and 150 μL transferred to a High Sensitivity 96 well UV plate. This was analysed by UV as the reference plate. A 200 μL sample of the 200 μM solution was transferred to the ‘donor’ plate of the PAMPA pIon sandwich plate system. 200 μL of acceptor sink buffer was transferred to the ‘acceptor’ plate which had been previously treated with GIT-O lipid solution across the well filter. Donor and acceptor plates were sandwiched and kept in a humid environment at room temperature for 16 hours. On completion of the incubation the donor and acceptor plates were separated. 150 μL of solution was transferred from each of the donor and acceptor PAMPA sandwich plates into High Sensitivity 96 well UV plates for analysis by UV. at different time points. The concentration of the compound in the acceptor compartment was determined using mass spectrometry. The permeability coefficient (Papp) was calculated based on the rate of appearance of the compound in the acceptor compartment (nm/s).

human TRPM4 = human TRPM4 (Homo sapiens, UniProt Q8TD43); test: QPatch automated patch clamp on TRPM4-expressing HEK293 cells; type: cell-based; settings: hsTRPM4-expressing HEK293 cells
Description: as §1, with “For QPatch assays, cells were harvested and re-suspended in SFM (Gibco, 11686029).” left out, “After break-in, channels were consistently open and current through the channels could be observed at a voltage ramp from –100 mV to +100 mV over 500 ms.” left out, “After saline and vehicle application, the channel was desensitized and residual current was used as baseline.” left out

T3 sequence (P08684 whole entry): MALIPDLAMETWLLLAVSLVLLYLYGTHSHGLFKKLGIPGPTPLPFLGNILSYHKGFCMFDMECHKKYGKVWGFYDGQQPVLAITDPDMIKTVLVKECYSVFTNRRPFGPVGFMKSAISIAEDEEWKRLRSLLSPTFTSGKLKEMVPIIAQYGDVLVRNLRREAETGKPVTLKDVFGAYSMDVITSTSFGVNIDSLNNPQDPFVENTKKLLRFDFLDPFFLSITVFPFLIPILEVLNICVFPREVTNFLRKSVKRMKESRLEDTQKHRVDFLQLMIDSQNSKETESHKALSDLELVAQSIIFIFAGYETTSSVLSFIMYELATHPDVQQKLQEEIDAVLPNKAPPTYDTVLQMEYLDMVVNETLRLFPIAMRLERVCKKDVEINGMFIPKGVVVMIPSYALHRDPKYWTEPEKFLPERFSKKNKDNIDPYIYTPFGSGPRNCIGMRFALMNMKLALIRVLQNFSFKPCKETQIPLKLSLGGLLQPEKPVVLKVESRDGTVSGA
human TRPM4, sequence (Q8TD43 whole entry): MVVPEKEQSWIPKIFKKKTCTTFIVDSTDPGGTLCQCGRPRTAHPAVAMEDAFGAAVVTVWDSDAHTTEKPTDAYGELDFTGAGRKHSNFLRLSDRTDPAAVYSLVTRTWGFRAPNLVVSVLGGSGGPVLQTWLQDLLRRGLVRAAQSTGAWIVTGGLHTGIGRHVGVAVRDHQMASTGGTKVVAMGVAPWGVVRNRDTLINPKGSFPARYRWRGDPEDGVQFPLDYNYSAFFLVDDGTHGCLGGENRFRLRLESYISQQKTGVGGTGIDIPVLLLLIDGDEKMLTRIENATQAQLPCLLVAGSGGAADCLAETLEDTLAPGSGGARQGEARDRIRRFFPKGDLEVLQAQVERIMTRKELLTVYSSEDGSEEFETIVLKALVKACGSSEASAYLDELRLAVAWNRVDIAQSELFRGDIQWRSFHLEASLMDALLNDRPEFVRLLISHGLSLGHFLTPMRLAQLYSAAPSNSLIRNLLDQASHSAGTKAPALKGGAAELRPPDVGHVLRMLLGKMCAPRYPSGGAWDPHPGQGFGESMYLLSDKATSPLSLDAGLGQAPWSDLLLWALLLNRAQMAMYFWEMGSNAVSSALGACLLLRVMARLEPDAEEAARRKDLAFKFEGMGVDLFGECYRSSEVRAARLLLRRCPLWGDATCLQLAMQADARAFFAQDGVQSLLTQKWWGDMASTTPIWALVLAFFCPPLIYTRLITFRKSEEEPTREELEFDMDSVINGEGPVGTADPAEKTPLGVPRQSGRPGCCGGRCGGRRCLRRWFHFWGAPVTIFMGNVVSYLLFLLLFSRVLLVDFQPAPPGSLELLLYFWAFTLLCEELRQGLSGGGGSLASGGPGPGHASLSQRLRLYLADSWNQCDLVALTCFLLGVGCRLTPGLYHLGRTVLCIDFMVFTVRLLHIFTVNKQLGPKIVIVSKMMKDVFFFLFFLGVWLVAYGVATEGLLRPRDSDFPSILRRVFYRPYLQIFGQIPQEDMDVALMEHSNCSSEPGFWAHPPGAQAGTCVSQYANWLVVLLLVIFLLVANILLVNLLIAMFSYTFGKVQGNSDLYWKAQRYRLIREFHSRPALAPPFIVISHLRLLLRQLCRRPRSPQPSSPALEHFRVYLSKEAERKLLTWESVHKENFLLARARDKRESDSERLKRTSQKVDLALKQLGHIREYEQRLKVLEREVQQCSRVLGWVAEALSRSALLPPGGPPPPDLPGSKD
T2 sequence (P10635 whole entry): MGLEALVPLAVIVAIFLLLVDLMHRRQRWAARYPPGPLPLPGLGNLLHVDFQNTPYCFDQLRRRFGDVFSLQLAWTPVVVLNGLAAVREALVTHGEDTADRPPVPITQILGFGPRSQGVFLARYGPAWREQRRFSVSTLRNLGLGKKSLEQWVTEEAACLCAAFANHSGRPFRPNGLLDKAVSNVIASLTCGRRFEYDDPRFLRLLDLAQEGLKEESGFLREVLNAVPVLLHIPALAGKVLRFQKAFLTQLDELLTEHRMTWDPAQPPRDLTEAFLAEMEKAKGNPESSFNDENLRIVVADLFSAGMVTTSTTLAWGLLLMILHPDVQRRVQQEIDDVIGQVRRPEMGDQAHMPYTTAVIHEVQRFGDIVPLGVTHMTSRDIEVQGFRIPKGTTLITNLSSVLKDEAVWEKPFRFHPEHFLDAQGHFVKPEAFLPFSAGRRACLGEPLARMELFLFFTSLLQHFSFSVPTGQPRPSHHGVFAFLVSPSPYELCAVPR
T4 sequence (P33261 whole entry): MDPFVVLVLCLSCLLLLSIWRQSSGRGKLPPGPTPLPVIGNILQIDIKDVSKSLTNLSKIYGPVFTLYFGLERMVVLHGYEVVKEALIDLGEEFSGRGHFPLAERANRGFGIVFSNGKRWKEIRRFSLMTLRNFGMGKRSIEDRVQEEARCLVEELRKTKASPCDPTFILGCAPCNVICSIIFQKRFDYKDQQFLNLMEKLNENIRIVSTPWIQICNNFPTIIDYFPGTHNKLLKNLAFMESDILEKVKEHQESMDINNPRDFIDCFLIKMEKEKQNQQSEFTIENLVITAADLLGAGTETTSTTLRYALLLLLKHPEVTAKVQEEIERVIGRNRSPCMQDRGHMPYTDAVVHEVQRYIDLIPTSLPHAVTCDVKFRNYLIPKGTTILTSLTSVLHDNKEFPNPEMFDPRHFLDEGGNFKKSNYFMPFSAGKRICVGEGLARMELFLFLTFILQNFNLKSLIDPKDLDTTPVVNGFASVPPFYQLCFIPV
potassium channel human Ether-a-go-go Related Gene (hERG), sequence (Q12809 whole entry): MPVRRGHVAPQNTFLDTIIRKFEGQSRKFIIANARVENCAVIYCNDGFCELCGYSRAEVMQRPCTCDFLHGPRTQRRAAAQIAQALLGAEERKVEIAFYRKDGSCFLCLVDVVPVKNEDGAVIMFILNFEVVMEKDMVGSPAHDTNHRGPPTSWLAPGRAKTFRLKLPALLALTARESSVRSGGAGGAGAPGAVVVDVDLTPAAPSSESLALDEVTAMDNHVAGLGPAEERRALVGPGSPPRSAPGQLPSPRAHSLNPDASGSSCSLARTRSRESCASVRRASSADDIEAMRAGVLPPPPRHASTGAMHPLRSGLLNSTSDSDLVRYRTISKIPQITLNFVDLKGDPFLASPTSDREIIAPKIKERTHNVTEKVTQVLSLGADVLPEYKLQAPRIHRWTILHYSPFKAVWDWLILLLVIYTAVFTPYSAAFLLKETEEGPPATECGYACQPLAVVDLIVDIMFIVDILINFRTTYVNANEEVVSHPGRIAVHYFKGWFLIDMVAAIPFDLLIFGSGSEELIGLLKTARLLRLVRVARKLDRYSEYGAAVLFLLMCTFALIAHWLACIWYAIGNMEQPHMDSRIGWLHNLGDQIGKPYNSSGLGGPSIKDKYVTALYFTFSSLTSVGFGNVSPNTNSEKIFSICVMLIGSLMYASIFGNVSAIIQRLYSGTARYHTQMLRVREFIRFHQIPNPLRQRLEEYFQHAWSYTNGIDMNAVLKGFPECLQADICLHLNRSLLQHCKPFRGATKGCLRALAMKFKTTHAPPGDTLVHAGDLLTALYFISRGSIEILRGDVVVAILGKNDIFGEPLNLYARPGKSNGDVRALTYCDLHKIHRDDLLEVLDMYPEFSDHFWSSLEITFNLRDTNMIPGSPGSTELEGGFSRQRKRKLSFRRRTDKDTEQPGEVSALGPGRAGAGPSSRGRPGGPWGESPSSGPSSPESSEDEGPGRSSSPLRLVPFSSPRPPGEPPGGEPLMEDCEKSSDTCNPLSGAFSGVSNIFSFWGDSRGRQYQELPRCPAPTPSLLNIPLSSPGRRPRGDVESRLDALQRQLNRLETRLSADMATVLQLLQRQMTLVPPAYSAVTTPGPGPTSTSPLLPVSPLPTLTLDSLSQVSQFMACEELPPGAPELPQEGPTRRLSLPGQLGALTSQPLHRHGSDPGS

Compound | IC50 (human TRPM5) | CLint scaled at 1 μM [2] | CLint scaled at 1 μM [3] | IC50 (CYP2D6) | Papp at 16 h, 200 μM [6] | IC50 (human TRPM4) | other results
Cc1ccc(-c2ccccc2NCc2nc3ccccc3o2)s1 [CMP354] | > 10 µM | > 900 mL/min/kg | 460 mL/min/kg | > 50 µM | – | – | IC50 [1]: > 10 µM; IC50 (CYP3A4; TDI, read-out: Cyp IC50 TDI 3A4): > 50 µM; IC50 (CYP3A4; read-out: Cyp IC50 3A4): > 50 µM; half-life ([4]; brain, ip, read-out: Brain half-life (converted)): 2.6 h; half-life ([4]; brain, iv, read-out: Brain half-life (converted)): 1.6 h; half-life ([4]; heart, ip, read-out: Heart half-life (converted)): 4.3 h; half-life ([4]; heart, iv, read-out: Heart half-life (converted)): 4.8 h; half-life ([4]; plasma, ip, read-out: Plasma half-life (converted)): 4.5 h; half-life ([4]; plasma, iv, read-out: Plasma half-life (converted)): 1.5 h
O=C(CCc1ccccc1)Nc1ccc(Cl)cc1C(=O)O [CMP493] | > 30 µM | – | – | – | – | 0.53 µM | –
O=C(CCc1ccccc1)Nc1ccc(C(F)(F)F)cc1C(=O)O [CMP502] | > 30 µM | – | – | – | – | 0.6 µM | –
O=C(CCc1ccccc1Cl)Nc1ccc(Br)cc1C(=O)O [CMP510] | 19 µM | – | – | – | – | 0.72 µM | –

Continued, in another order:

IC50 (human TRPM5) | CLint scaled at 1 μM [2] | CLint scaled at 1 μM [3] | IC50 (CYP2D6) | Papp at 16 h, 200 μM [6] | Compound | IC50 (human TRPM4) | other results
> 30 µM | 900 mL/min/kg | 302 mL/min/kg | > 50 µM | 25 ×10⁻⁶ cm/s | CNc1cccc(-c2ccccc2NCc2nc3ccccc3o2)c1 [CMP462] | – | IC50 (CYP 2C19): 4 µM; Papp at 120 min, 10 μM [5]: 23.3 ×10⁻⁶ cm/s
> 30 µM | 393 mL/min/kg | 216 mL/min/kg | > 50 µM | 37.9 ×10⁻⁶ cm/s | Nc1cccc(-c2ccccc2NCc2nc3ccccc3o2)c1 [CMP465] | – | Papp at 120 min, 10 μM [5]: 18.9 ×10⁻⁶ cm/s
> 30 µM | 900 mL/min/kg | 225 mL/min/kg | > 50 µM | 22 ×10⁻⁶ cm/s | CNc1ccc(-c2ccccc2NCc2nc3ccccc3o2)cc1 [CMP470] | – | –
> 30 µM | – | – | – | – | CCCNc1cccc(-c2ccccc2NCc2nc3ccccc3o2)c1 [CMP471] | – | IC50 (CYP2D6; human, pH 7.4): > 50 µM; IC50 (CYP3A4; human, pH 7.4): > 50 µM; PAMPA perm. [6]: no detection
0.94 µM | – | – | – | – | O=C(CCc1cccc(Cl)c1)Nc1ccc(Br)cc1C(=O)O [CMP512] | 0.41 µM | –
